Measured values reported in PMC6934184, “Selective DNA-PKcs inhibition extends the therapeutic index of localized radiotherapy and chemotherapy” (The Journal of Clinical Investigation, 2019).

Tested on: MCF7 cells
Test: clonogenic survival with IR
Type: cell-based, Human
Details: 1 μM
Description: Cell line γH2AX and 53BP1 foci immunofluorescence and quantitation
Cells grown on coverslips or in 96-well plates were treated with 1 or 5 µM NU5455 or DMSO 1 hour prior to irradiation (0, 2.5 or 10 Gy) using an RS 320 X-ray Research System (Gulmay Medical). At set timepoints (15 or 30 minutes, or 1, 4, 5, 6, or 24 hours post-irradiation), cells were washed and fixed in methanol or 3% paraformaldehyde (PFA). […] In A549 and Calu-6, cells were Hoechst stained (5 µg/ml), and the average numbers of γH2AX and 53BP1 foci per cell were quantified from 400 nuclei per sample using an In Cell analyzer 1000 (GE Healthcare). For MCF7 cells, coverslips were mounted using Vectashield mounting medium with DAPI (Vector Labs) and imaged using a Leica TCS SPE confocal fluorescence microscope. Total fluorescence intensity was determined using ImagePro Plus 5.0 software (Media Cybernetics). […]
Cells were washed in phosphate-buffered saline (PBS), trypsinized and counted. […] Colonies were fixed using Carnoys fixture (75% v/v methanol, 25% v/v acetic acid, Fisher), stained with crystal violet (0.4% w/v in water), and counted using a ColCount automated colony counter (Oxford Optronics). Cell survival was calculated as a percentage of the untreated control. […]

CN(C(=O)CN1CCOCC1)c1ccc2sc3c(-c4cccc5c(=O)cc(N6CC7CCC(C6)O7)oc45)cccc3c2c1 [NU5455]
radio-enhancement (LD80) (24-hour treatment after IR): 2.4 fold
radio-enhancement (LD80) (1 hour of treatment after IR): 1.2 fold
